{"source": "patent US20100120703A1", "about": "“COMPOSITIONS AND METHODS FOR TREATING CANCER” (priority 2007, published 2010)", "key": {"Sprague Dawley (SD) rats [1]": {"test_system": "Sprague Dawley (SD) rats", "assay": "Histological analysis and GST-p immunostaining of liver, promotion stage", "type": "in vivo, rat", "source_text": "In the promotion stage experiment, rats in the negative control group received weekly intraperitoneal (i.p.) injection of DMSO for the first 2 weeks and then Corn Oil for the rest of the schedule. Rats in the positive control and SIN-treatment groups both received weekly intraperitoneal (i.p.) injection of the carcinogen DEN for the first 2 weeks and then promoter, Carbon Tetrachloride (CCl4) for the rest of the schedule. Two weeks of fasting were inserted between the initiator carcinogen treatment and the promoter CCl4 treatment. During the fasting period of 2 weeks, rats were fasted for 5 days, followed by a 2 day feeding, and another 5 days of fasting. Water was given ad libitum. Negative and positive control groups received oral treatment of water once a day after fasting. Sinigrin with dosage 15 mg/kg was administered orally to the treatment group daily for 28 weeks after fasting.\nHistological analysis was performed to observe the basic structure of the hepatocytes. Xylene was purchased from Mallinckrodt. Ethanol was purchased from BDH. ABC staining (Anti-rabbit) kit (sc-2018) was purchased from Santa Cruz. Superfrost Microscope slide was purchased from Fisher. 30% H2O2, DAB and Formaldehyde were purchased from Sigma. Anti-GST-pi rabbit polyclonal antibody was purchased from MBL.\nThe liver samples were fixed with 10% formaldehyde and put in cassettes for dehydration and fixed with wax. […]"}, "Sprague Dawley (SD) rats [2]": {"test_system": "Sprague Dawley (SD) rats", "assay": "Histological analysis and GST-p immunostaining of liver, progression stage", "type": "in vivo, rat", "method": "The liver samples were fixed with 10% formaldehyde and put in cassettes for dehydration and fixed with wax. Subsequently, liver samples were embedded in the solidified wax and sliced to 5 μm thickness with a microtome machine. Sliced samples were mounted onto Superfrost microscope slides for further studies.\nSlides with liver sections were placed on a slide holder, dewaxed and rehydrated with xylene (3 times, each time 5 minutes), 100% ethanol (3 times, each time 3 minutes), 95% ethanol (3 minutes), 80% ethanol (3 minutes) and distilled water (5 minutes) in order. Slides were then immersed into hematoxylin for about 3 minutes, and the color was allowed to develop for several minutes in water, followed by brief destaining with acid ethanol and water. Slides were immersed into eosin for about 30 seconds to stain the cytoplasm red, followed by washing in tap water for several minutes. Slide-checking was necessary to assure the best staining effect. Slides were then dehydrated with 95% ethanol (3 minutes), 100% ethanol (3 times, each time 5 minutes), and xylene (3 times, each time 5 minutes), in order. Finally, the slides were mounted with coverslips and allowed to dry. […]\nThe images were checked and captured by an Axiophot-2 Universal microscope (Zeiss) connected with computer for documentation. The image was recorded by Spot 32 image capture software (Diagnostic Instruments). […]"}}, "data": [{"compound": "C=CC/C(=N/OS(=O)(=O)[O-])S[C@@H]1OC(CO)[C@@H](O)C(O)C1O.[K+]", "note": "(stereo partly shown) [SIN, sinigrin]", "values": [{"measurement": "hepatocyte structure in liver sections (H&E)", "setting": "Sprague Dawley (SD) rats [1]; 15 mg/kg oral daily", "result": "the basic structure of hepatocytes and the central vein were restored"}, {"measurement": "GST-p positive area / whole section area", "setting": "Sprague Dawley (SD) rats [1]; positive control 35%", "result": 5, "unit": "%"}, {"measurement": "hepatocyte structure in liver sections (H&E)", "setting": "Sprague Dawley (SD) rats [2]; 15 mg/kg oral daily", "result": "the basic structure was restored without abnormal appearance"}, {"measurement": "GST-p positive area / whole section area", "setting": "Sprague Dawley (SD) rats [2]; positive control about 30%", "result": "less than 10%"}]}]}
